US20220265629A1, “TREATMENT OF SYSTOLIC DYSFUNCTION AND HEART FAILURE WITH REDUCED EJECTION FRACTION WITH THE COMPOUND (R)-4-(1-((3-(DIFLUOROMETHYL)-1-METHYL-1H-PYRAZOL-4-YL)SULFONYL)-1-FLUOROETHYL)-N-(ISOXAZOL-3-YL)PIPERIDINE-1-CARBOXAMIDE” (MyoKardia, Inc., priority 2019, published 2022)
Where two headings read alike, the source gives them in different places.

Assay: Single ascending oral dose study in healthy volunteers: plasma pharmacokinetics
Type: in vivo, human
Details: human, plasma, oral; for concentration at 6 h: 6 Hours Postdose; for concentration at 12 h: 12 Hours Postdose; for concentration at 24 h: 24 Hours Postdose; for concentration at 48 h: 48 Hours Postdose; for concentration at 72 h: 72 Hours Postdose
Source text: This example describes the first-in-human study of Compound I. Based on its mechanism of action, Compound I may offer a targeted therapy for patients with DCM caused by genetic or nongenetic mechanisms. The study was a randomized, double-blind, placebo-controlled, sequential group, single-ascending (oral) close study in healthy subjects aged 18-55 years. Eight dosing cohorts, each comprising eight healthy subjects, were enrolled. Within each cohort, subjects were randomized 6:2 to Compound I:placebo.
Subjects were resident at the clinical site for up to 5 days and 4 nights, from Day −1 (the day before dosing) to Day 4, and received a single dose of Compound I or placebo on Day 1. ECG telemetry was initiated 1 hour preclose and continued through 48 hours postclose (Day 3). Any subject with a preclose resting HR≥80 beats per minute was considered ineligible and not treated. […] Subjects returned for a safety follow-up visit 7 days (±1 day) after dosing.
All randomized study subjects received either Compound I or matching placebo as a single oral dose after a fasting period of at least 6 hours. Compound I drug substance is a crystalline, free-base, synthetic molecule with a molecular weight of 435.4 g/mol.
Compound I was provided as a powder for oral suspension. Placebo was provided as calcium carbonate powder. Both treatments were closed orally as a suspension. The suspension was made using Ora-Plus® suspending vehicle (Perrigo) and a cherry syrup flavoring vehicle (Humco), mixed 50% to 50%. The suspension was followed by approximately 100 mL water. The suspension was made up within 14 days from the time in which it was closed which was consistent with the stability data on the suspension. The suspension was made up so the volume administered to the subjects who received Compound I was the same at 20 mL.
Each subject received a close according to the cohort in which they were enrolled. Cohorts were enrolled sequentially, with each cohort receiving an escalated dose of Compound I. The closes administered were 3 mg, 10 mg, 25 mg, 50 mg, 100 mg, 175 mg, 350 mg, and 525 mg, respectively.
The concentrations of Compound I in human plasma and urine were quantitated by high performance liquid chromatography with tandem mass spectrometric detection (LC MS/MS) (Biological sample analysis study report Alturas AD17-726). Plasma samples were extracted by protein precipitation with acetonitrile containing internal standard MYK-5654. The calibration curves were linear over concentration range of 0.500 to 1000 ng/mL with a lower limit of quantification (LLOQ) of 0.500 ng/mL.
The PK Population included all subjects who received Compound I. Blood samples were collected for PK assessments. The actual timing of the samples may have been modified and/or up to an additional 2 samples may have been requested by the SRC after review of the data from previous cohorts. It was important that PK sampling occurred as closely as possible to the scheduled time (±10%). Both blood and urine samples were used for PK assessments.
In addition, for subjects who received placebo, a single plasma sample near the predicted tmax of Compound I was evaluated to confirm the lack of circulating Compound I. Plasma concentration data for Compound I was summarized using descriptive statistics, including mean, standard deviation (SD), median, minimum, and maximum values, and percent coefficient of variation. Other PK parameters included (but were not limited to) Cmax, tmax, AUC, t1/2, and MRT. Additionally, the apparent terminal-phase terminal half-life was calculated. The close proportionality of AUC and Cmax was explored.

[1] = 100 mg, 100 mg, read-out: Plasma concentration, Geometric Mean
[2] = 100 mg, 100 mg, read-out: Plasma concentration, Mean
[3] = 100 mg, 100 mg, read-out: Plasma concentration, Median
[4] = 175 mg, 175 mg, read-out: Plasma concentration, Geometric Mean
[5] = 175 mg, 175 mg, read-out: Plasma concentration, Mean
[6] = 175 mg, 175 mg, read-out: Plasma concentration, Median

Compound Cn1cc(S(=O)(=O)[C@@](C)(F)C2CCN(C(=O)Nc3ccon3)CC2)c(C(F)F)n1 [Compound I, (R)-4-(1-((3-(difluoromethyl)-1-methyl-1H-pyrazol-4-yl)sulfonyl)-1-fluoroethyl)-N-(isoxazol-3-yl)piperidine-1-carboxamide] has a Vd/F (50 mg, read-out: Vz/F, Mean) of 87.9 L, a Vd/F (50 mg, read-out: Vz/F, Median) of 90.6 L and a concentration at 6 h [1] of 934 ng/mL. The concentration at 6 h [2] was 947 ng/mL, the concentration at 6 h [3] was 935 ng/mL and the concentration at 12 h [1] was 661 ng/mL. It also gave a concentration at 12 h [2] of 674 ng/mL, a concentration at 12 h [3] of 637 ng/mL and a concentration at 24 h [1] of 374 ng/mL. For the same compound, the concentration at 24 h [2] was 384 ng/mL, the concentration at 24 h [3] was 372 ng/mL and the concentration at 48 h [1] was 71 ng/mL. It also gave a concentration at 48 h [2] of 91.1 ng/mL, a concentration at 48 h [3] of 104 ng/mL and a concentration at 72 h [2] of 23.2 ng/mL. It also gave a concentration at 72 h [3] of 24.2 ng/mL, an AUC(0-t) (100 mg, read-out: AUC0-24, Geometric Mean) of 15200 ng·h/mL and an AUC(0-t) (100 mg, read-out: AUC0-24, Mean) of 15400 ng·h/mL. For the same compound, the AUC(0-t) (100 mg, read-out: AUC0-24, Median) was 14900 ng·h/mL, the AUC(0-t) (100 mg, read-out: AUC0-48, Geometric Mean) was 21100 ng·h/mL and the AUC(0-t) (100 mg, read-out: AUC0-48, Mean) was 21400 ng·h/mL. The AUC(0-t) (100 mg, read-out: AUC0-48, Median) was 21600 ng·h/mL, the AUC(0-t) (100 mg, read-out: AUC0-last, Geometric Mean) was 21700 ng·h/mL and the AUC(0-t) (100 mg, read-out: AUC0-last, Mean) was 22700 ng·h/mL. The AUC(0-t) (100 mg, read-out: AUC0-last, Median) was 22400 ng·h/mL, the AUC(0-inf) (100 mg, read-out: AUC0-∞, Geometric Mean) was 21300 ng·h/mL and the AUC(0-inf) (100 mg, read-out: AUC0-∞, Mean) was 21700 ng·h/mL. The AUC(0-inf) (100 mg, read-out: AUC0-∞, Median) was 18700 ng·h/mL, the Cmax (100 mg, read-out: Cmax, Geometric Mean) was 1000 ng/mL and the Cmax (100 mg, read-out: Cmax, Mean) was 1020 ng/mL. The Cmax (100 mg, read-out: Cmax, Median) was 983 ng/mL, the half-life (100 mg, read-out: Half-Life Lambda Z, Geometric Mean (converted)) was 665 min and the half-life (100 mg, read-out: Half-Life Lambda Z, Mean (converted)) was 700 min. The half-life (100 mg, read-out: Half-Life Lambda Z, Median (converted)) was 752 min, the MRT (100 mg, read-out: Mean Residence Time, Geometric Mean) was 19.1 h and the MRT (100 mg, read-out: Mean Residence Time, Mean) was 19.5 h. The MRT (100 mg, read-out: Mean Residence Time, Median) was 20.4 h, the Tmax (100 mg, read-out: Tmax, Geometric Mean) was 4.42 h and the Tmax (100 mg, read-out: Tmax, Mean) was 4.5 h. For the same compound, the Tmax (100 mg, read-out: Tmax, Median) was 5 h, the Vd/F (100 mg, read-out: Vz/F, Geometric Mean) was 74.9 L and the Vd/F (100 mg, read-out: Vz/F, Mean) was 77.9 L. It also gave a Vd/F (100 mg, read-out: Vz/F, Median) of 82.1 L, a concentration at 6 h [4] of 1260 ng/mL and a concentration at 6 h [5] of 1270 ng/mL. The concentration at 6 h [6] was 1250 ng/mL, the concentration at 12 h [4] was 1040 ng/mL and the concentration at 12 h [5] was 1050 ng/mL. For the same compound, the concentration at 12 h [6] was 1040 ng/mL, the concentration at 24 h [4] was 650 ng/mL and the concentration at 24 h [5] was 664 ng/mL. The concentration at 24 h [6] was 690 ng/mL, the concentration at 48 h [4] was 203 ng/mL and the concentration at 48 h [5] was 212 ng/mL. It also gave a concentration at 48 h [6] of 224 ng/mL, a concentration at 72 h [4] of 64 ng/mL and a concentration at 72 h [5] of 71.3 ng/mL. The concentration at 72 h [6] was 73.2 ng/mL, the AUC(0-t) (175 mg, read-out: AUC0-24, Geometric Mean) was 22000 ng·h/mL and the AUC(0-t) (175 mg, read-out: AUC0-24, Mean) was 22300 ng·h/mL. It also gave an AUC(0-t) (175 mg, read-out: AUC0-24, Median) of 21700 ng·h/mL, an AUC(0-t) (175 mg, read-out: AUC0-48, Geometric Mean) of 32300 ng·h/mL and an AUC(0-t) (175 mg, read-out: AUC0-48, Mean) of 32800 ng·h/mL. It also gave an AUC(0-t) (175 mg, read-out: AUC0-48, Median) of 32700 ng·h/mL, an AUC(0-t) (175 mg, read-out: AUC0-last, Geometric Mean) of 38200 ng·h/mL and an AUC(0-t) (175 mg, read-out: AUC0-last, Mean) of 39000 ng·h/mL. The AUC(0-t) (175 mg, read-out: AUC0-last, Median) was 39600 ng·h/mL, the AUC(0-inf) (175 mg, read-out: AUC0-∞, Geometric Mean) was 38300 ng·h/mL and the AUC(0-inf) (175 mg, read-out: AUC0-∞, Mean) was 39100 ng·h/mL. For the same compound, the AUC(0-inf) (175 mg, read-out: AUC0-∞, Median) was 39700 ng·h/mL, the Cmax (175 mg, read-out: Cmax, Geometric Mean) was 1300 ng/mL and the Cmax (175 mg, read-out: Cmax, Mean) was 1320 ng/mL. For the same compound, the Cmax (175 mg, read-out: Cmax, Median) was 1300 ng/mL, the half-life (175 mg, read-out: Half-Life Lambda Z, Geometric Mean (converted)) was 945 min and the half-life (175 mg, read-out: Half-Life Lambda Z, Mean (converted)) was 950 min. The half-life (175 mg, read-out: Half-Life Lambda Z, Median (converted)) was 982 min, the MRT (175 mg, read-out: Mean Residence Time, Geometric Mean) was 24.4 h and the MRT (175 mg, read-out: Mean Residence Time, Mean) was 24.6 h. The MRT (175 mg, read-out: Mean Residence Time, Median) was 24.4 h, the Tmax (175 mg, read-out: Tmax, Geometric Mean) was 5.07 h and the Tmax (175 mg, read-out: Tmax, Mean) was 5.11 h. The Tmax (175 mg, read-out: Tmax, Median) was 5 h, the Vd/F (175 mg, read-out: Vz/F, Geometric Mean) was 104 L and the Vd/F (175 mg, read-out: Vz/F, Mean) was 106 L. For the same compound, the Vd/F (175 mg, read-out: Vz/F, Median) was 101 L, the AUC(0-t) (350 mg + 525 mg, read-out: AUC0-24, Geometric Mean) was 40900 ng·h/mL and the AUC(0-t) (350 mg + 525 mg, read-out: AUC0-24, Mean) was 42100 ng·h/mL. For the same compound, the AUC(0-t) (350 mg + 525 mg, read-out: AUC0-24, Median) was 38500 ng·h/mL, the AUC(0-t) (350 mg + 525 mg, read-out: AUC0-48, Geometric Mean) was 60500 ng·h/mL and the AUC(0-t) (350 mg + 525 mg, read-out: AUC0-48, Mean) was 62400 ng·h/mL. For the same compound, the AUC(0-t) (350 mg + 525 mg, read-out: AUC0-48, Median) was 57400 ng·h/mL, the AUC(0-t) (350 mg + 525 mg, read-out: AUC0-last, Geometric Mean) was 70600 ng·h/mL and the AUC(0-t) (350 mg + 525 mg, read-out: AUC0-last, Mean) was 74000 ng·h/mL. It also gave an AUC(0-t) (350 mg + 525 mg, read-out: AUC0-last, Median) of 68600 ng·h/mL, an AUC(0-inf) (350 mg + 525 mg, read-out: AUC0-∞, Geometric Mean) of 71000 ng·h/mL and an AUC(0-inf) (350 mg + 525 mg, read-out: AUC0-∞, Mean) of 74400 ng·h/mL. The AUC(0-inf) (350 mg + 525 mg, read-out: AUC0-∞, Median) was 68800 ng·h/mL, the Cmax (350 mg + 525 mg, read-out: Cmax, Geometric Mean) was 2530 ng/mL and the Cmax (350 mg + 525 mg, read-out: Cmax, Mean) was 2580 ng/mL. For the same compound, the Cmax (350 mg + 525 mg, read-out: Cmax, Median) was 2500 ng/mL, the half-life (350 mg + 525 mg, read-out: Half-Life Lambda Z, Geometric Mean (converted)) was 871 min and the half-life (350 mg + 525 mg, read-out: Half-Life Lambda Z, Mean (converted)) was about 900 min. The half-life (350 mg + 525 mg, read-out: Half-Life Lambda Z, Median (converted)) was 872 min, the MRT (350 mg + 525 mg, read-out: Mean Residence Time, Geometric Mean) was 23.9 h and the MRT (350 mg + 525 mg, read-out: Mean Residence Time, Mean) was 24.3 h. The MRT (350 mg + 525 mg, read-out: Mean Residence Time, Median) was 23.5 h, the Tmax (350 mg + 525 mg, read-out: Tmax, Geometric Mean) was 4.89 h and the Tmax (350 mg + 525 mg, read-out: Tmax, Mean) was 5 h. The Vd/F (350 mg + 525 mg, read-out: Vz/F, Geometric Mean) was 126 L, the Vd/F (350 mg + 525 mg, read-out: Vz/F, Mean) was 132 L and the Vd/F (350 mg + 525 mg, read-out: Vz/F, Median) was 116 L. It also gave a concentration at 6 h (350 mg, 350 mg, read-out: Plasma concentration, Geometric Mean) of 2620 ng/mL.
